We go through 17 compounds from patent publication US20140249135A1, “PIM KINASE INHIBITORS AND METHODS OF THEIR USE” (NOVARTIS AG, priority 2007, published 2014).

Like-named read-outs stand apart in the source and are kept apart here.

As usually defined, the IC50 is the concentration that gives 50% inhibition.

Assay [1] concerns the target Pim2 kinase (Homo sapiens, UniProt Q9P1W9). Briefly: Pim2 ATP depletion assay.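 Note: Luciferase-based luminescent readout of ATP remaining after PIM2 phosphorylates a BAD peptide, final 5 nM enzyme, 4 µM ATP, 10 µM peptide, 2.5% DMSO, run to roughly half ATP consumption.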 In kind it is biochemical.
Assay [2] deals with Pim3 kinase (Homo sapiens, UniProt Q86V86). Briefly: Pim3 ATP depletion assay. Format: biochemical.
Assay [3] has as its target Pim1 kinase (Homo sapiens, UniProt P11309). Briefly: Pim1 ATP depletion assay.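 Note: Luciferase-luciferin luminescence readout of residual ATP after PIM1 transfers phosphate to a peptide substrate, 40 µM ATP added, reaction run to roughly half ATP consumption.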 Format: biochemical. The following applies: Pim1 ATP depletion assay.
Assay [4] has as its target KDR kinase (Homo sapiens, UniProt P35968). Briefly: KDR AlphaScreen assay. The note with it: KDR IC50 (μM). In general terms: Alpha assays give light when donor and acceptor beads are brought close together.
The target of assay [5] is T1, human full length PKCE enzyme (Homo sapiens, UniProt Q02156).
T1 construct: human full length PKCE enzyme purchased from InVitrogen; purchased InVitrogen
T1 sequence (Q02156 1-737): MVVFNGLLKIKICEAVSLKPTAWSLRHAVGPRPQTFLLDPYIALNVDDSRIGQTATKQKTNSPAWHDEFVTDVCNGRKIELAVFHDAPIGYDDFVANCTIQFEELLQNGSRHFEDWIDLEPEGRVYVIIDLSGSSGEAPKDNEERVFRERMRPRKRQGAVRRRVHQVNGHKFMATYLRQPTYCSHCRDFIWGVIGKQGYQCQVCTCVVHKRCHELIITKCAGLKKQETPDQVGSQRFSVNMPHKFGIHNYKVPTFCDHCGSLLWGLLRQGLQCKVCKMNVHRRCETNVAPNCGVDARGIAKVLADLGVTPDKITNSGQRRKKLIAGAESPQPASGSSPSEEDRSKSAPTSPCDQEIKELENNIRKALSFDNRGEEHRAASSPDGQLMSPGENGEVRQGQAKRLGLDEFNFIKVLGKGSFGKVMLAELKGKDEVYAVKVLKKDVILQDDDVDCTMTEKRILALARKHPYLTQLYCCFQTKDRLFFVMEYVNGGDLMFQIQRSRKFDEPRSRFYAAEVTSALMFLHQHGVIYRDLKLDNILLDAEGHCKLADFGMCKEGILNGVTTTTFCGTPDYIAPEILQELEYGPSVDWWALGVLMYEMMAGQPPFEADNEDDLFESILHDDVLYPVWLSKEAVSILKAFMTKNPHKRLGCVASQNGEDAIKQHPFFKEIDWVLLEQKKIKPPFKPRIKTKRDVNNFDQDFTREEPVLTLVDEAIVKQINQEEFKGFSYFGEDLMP
Description: In vitro PKCE assay. The note with it: 10 nM enzyme, 40 uM peptide substrate, 20 uM ATP, KinaseGlo Plus readout; read-out: PKCε IC50. In kind it is biochemical. In general terms: In Kinase-Glo more light means more ATP remaining.

Sequence of KDR kinase (P35968 20-1356): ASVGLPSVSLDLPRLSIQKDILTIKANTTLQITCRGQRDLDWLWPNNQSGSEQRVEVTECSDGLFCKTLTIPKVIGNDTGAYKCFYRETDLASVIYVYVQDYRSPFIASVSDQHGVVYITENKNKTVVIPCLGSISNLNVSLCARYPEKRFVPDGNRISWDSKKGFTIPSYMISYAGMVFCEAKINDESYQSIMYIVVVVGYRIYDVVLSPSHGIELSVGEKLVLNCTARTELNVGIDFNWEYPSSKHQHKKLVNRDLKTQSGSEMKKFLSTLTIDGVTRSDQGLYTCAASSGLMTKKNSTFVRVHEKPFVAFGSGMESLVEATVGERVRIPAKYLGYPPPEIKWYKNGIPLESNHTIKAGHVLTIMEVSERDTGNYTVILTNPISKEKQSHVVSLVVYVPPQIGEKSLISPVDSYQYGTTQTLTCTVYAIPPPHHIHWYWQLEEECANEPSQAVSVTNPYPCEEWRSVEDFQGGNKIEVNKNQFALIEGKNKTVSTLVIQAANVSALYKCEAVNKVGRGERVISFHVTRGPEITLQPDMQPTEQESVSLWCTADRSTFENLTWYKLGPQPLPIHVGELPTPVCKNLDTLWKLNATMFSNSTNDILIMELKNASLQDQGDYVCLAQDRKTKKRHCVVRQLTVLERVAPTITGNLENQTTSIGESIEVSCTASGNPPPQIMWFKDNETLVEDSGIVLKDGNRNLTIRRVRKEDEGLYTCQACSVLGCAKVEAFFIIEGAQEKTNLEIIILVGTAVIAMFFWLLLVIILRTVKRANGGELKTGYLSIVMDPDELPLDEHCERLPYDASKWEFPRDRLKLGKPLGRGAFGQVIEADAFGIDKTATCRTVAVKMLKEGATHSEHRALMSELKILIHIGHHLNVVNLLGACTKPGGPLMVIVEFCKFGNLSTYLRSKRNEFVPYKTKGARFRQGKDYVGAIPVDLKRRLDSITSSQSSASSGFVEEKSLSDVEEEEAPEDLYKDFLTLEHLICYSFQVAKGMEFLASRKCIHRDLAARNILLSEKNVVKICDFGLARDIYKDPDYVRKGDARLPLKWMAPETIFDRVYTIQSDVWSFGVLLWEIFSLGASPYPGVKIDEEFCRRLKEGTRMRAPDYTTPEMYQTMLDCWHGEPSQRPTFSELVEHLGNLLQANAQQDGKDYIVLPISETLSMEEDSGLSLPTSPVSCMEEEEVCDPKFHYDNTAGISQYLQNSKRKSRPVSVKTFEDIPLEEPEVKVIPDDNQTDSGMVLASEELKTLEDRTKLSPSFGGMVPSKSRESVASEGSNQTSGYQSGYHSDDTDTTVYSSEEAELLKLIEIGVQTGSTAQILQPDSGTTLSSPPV
Sequence of Pim1 kinase (P11309 whole entry): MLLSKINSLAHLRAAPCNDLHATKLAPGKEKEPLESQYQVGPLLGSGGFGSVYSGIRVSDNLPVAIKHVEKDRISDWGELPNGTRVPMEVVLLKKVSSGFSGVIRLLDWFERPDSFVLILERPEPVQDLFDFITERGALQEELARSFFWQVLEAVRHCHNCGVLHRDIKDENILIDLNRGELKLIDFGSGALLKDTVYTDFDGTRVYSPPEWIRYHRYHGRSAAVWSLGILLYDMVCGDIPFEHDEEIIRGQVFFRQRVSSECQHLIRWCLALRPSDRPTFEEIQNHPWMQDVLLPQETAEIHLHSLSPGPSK
Sequence of Pim2 kinase (Q9P1W9 whole entry): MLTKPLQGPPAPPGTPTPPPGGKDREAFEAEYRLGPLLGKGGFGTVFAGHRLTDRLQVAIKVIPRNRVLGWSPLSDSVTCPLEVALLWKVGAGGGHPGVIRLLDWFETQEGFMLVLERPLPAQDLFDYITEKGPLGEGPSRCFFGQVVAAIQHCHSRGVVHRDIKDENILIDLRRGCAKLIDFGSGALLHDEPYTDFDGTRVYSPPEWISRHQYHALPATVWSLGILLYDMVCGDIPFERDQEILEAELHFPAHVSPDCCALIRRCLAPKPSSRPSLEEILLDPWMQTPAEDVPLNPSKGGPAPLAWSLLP

With `CC(C)NC(=O)c1ccc(F)c(-c2ccc(N)c(C(=O)Nc3cnccc3N3CCCC(O)(C(F)(F)F)C3)n2)c1` (centres unmarked) [Example 163, 3-Amino-6-(2-fluoro-5-isopropylcarbamoyl-phenyl)-pyridine-2-carboxylic acid (3-hydroxy-3-trifluoromethyl-3,4,5,6-tetrahydro-2H-[1,4′]bi-pyridinyl-3′-yl)-amide], the IC50 in assay [1] (read-out: IC50 (μM) PIM2) is under 1 µM; in assay [2] (read-out: IC50 (μM) PIM3), under 1 µM; in assay [3] (read-out: IC50 (μM) PIM1), under 1 µM; in assay [4], 10 to 25 µM.
On to `Nc1ccc(-c2ccccc2F)nc1C(=O)Nc1cnccc1N1CCCC(O)(C(F)(F)F)C1` (centres unmarked) [Example 164, 3-Amino-6-(2-fluoro-phenyl)-pyridine-2-carboxylic acid (3-hydroxy-3-trifluoromethyl-3,4,5,6-tetrahydro-2H-[1,4′]bi-pyridinyl-3′-yl)-amide], for which the concentration for half-maximal inhibition (IC50) was under 1 µM in assay [1] (read-out: IC50 (μM) PIM2), under 1 µM in assay [2] (read-out: IC50 (μM) PIM3), under 1 µM in assay [3] (read-out: IC50 (μM) PIM1) and 10 to 25 µM in assay [4].
On to `Nc1cnc(-c2c(F)cccc2F)nc1C(=O)Nc1cnccc1N1CCCC(O)(C(F)(F)F)C1` (centres unmarked) [Example 165, 5-Amino-2-(2,6-difluoro-phenyl)-pyrimidine-4-carboxylic acid (3-hydroxy-3-trifluoromethyl-3,4,5,6-tetra-hydro-2H-[1,4′]bipyridinyl-3′-yl)-amide], for which the half-inhibitory concentration (IC50) in assay [1] (read-out: IC50 (μM) PIM2) is under 1 µM; in assay [2] (read-out: IC50 (μM) PIM3) it was under 1 µM; in assay [3] (read-out: IC50 (μM) PIM1), under 1 µM; in assay [4] it was 10 to 25 µM.
With `NCCOc1ccncc1NC(=O)c1nccnc1N` [Example 194, 3-amino-N-[4-(2-amino-ethoxy)pyridin-3-yl]pyrazine-2-carboxamide], the 50% inhibitory concentration (IC50) in assay [5] is over 25000 nM; in assay [1] (read-out: IC50 (μM) PIM2), over 25 µM; in assay [2] (read-out: IC50 (μM) PIM3) it was over 25 µM; in assay [3] (read-out: IC50 (μM) PIM1), over 25 µM.
For the compound `NCC1CCCN(c2cnc(=O)[nH]c2NC(=O)c2nc(Br)cnc2N)C1` (centres unmarked) [Example 240, 3-amino-N-{5-[3-(aminomethyl)-piperidin-1-yl]-2-oxo-2,3-dihydropyrimidin-4-yl}-6-bromopyrazine-2-carboxamide], the IC50 was under 1000 nM in assay [5], under 1 µM in assay [1] (read-out: IC50 (μM) PIM2), under 1 µM in assay [2] (read-out: IC50 (μM) PIM3) and under 1 µM in assay [3] (read-out: IC50 (μM) PIM1).
For `NCCC(=O)N1CCN(c2cnc(=O)[nH]c2NC(=O)c2nc(Br)cnc2N)CC1` [Example 241, 3-amino-N-{5-[4-(3-amino-propanoyl)piperazin-1-yl]-2-oxo-2,3-dihydropyrimidin-4-yl}-6-bromopyrazine-2-carboxamide], the IC50 in assay [5] is 1000 to 10000 nM; in assay [1] (read-out: IC50 (μM) PIM2), under 1 µM; in assay [2] (read-out: IC50 (μM) PIM3), under 1 µM; in assay [3] (read-out: IC50 (μM) PIM1), under 1 µM.
Turning to `Nc1cccnc1C(=O)Nc1[nH]c(=O)ncc1N1CCCC(N)C1` (centres unmarked) [Example 242, 3-amino-N-[5-(3-aminopiperidin-1-yl)-2-oxo-2,3-dihydro-pyrimidin-4-yl]pyridine-2-carboxamide], the half-inhibitory concentration (IC50) in assay [5] is over 25000 nM; in assay [1] (read-out: IC50 (μM) PIM2) it was under 1 µM; in assay [2] (read-out: IC50 (μM) PIM3) it was under 1 µM; in assay [3] (read-out: IC50 (μM) PIM1), under 1 µM.
As to `Nc1cnc(C(=O)Nc2cnccc2N2CCCCC2)c(N)n1` [Example 312, 3,5-diamino-N-(4-(piperidin-1-yl)pyridin-3-yl)pyrazine-2-carboxamide], the concentration for half-maximal inhibition (IC50) in assay [5] is 10000 to 25000 nM; in assay [1] (read-out: IC50 (μM) PIM2), 1 to 10 µM; in assay [2] (read-out: IC50 (μM) PIM3), under 1 µM; in assay [3] (read-out: IC50 (μM) PIM1), under 1 µM.
For the compound `Cc1ccccc1-c1cnc(N)c(C(=O)Nc2cnccc2N2CCCC(N)C2)n1` (centres unmarked) [Example 351, 3-amino-6-o-tolyl-pyrazine-2-carboxylic acid (3-amino-3,4,5,6-tetrahydro-2H-[1,4′]bi-pyridinyl-3′-yl)-amide], the concentration for half-maximal inhibition (IC50) is under 1000 nM in assay [5], under 1 µM in assay [1] (read-out: IC50 (μM) PIM2), under 1 µM in assay [2] (read-out: IC50 (μM) PIM3) and under 1 µM in assay [3] (read-out: IC50 (μM) PIM1).
In the case of `Cc1cnc(N)c(C(=O)Nc2cnccc2N2CCCC(N)C2)n1` (centres unmarked) [Example 371, 3-amino-6-methyl-pyrazine-2-carboxylic acid (3-amino-3,4,5,6-tetrahydro-2H-[1,4′]bi-pyridinyl-3′-yl)-amide], the half-inhibitory concentration (IC50) in assay [5] was 1000 to 10000 nM; in assay [1] (read-out: IC50 (μM) PIM2) it was under 1 µM; in assay [2] (read-out: IC50 (μM) PIM3), under 1 µM; in assay [3] (read-out: IC50 (μM) PIM1), under 1 µM.
In the case of `N#Cc1ccccc1-c1cnc(N)c(C(=O)Nc2[nH]c(=O)ncc2N2CCCC(N)C2)n1` (centres unmarked) [Example 403, 3-amino-6-(2-cyano-phenyl)-pyrazine-2-carboxylic acid [5-(3-amino-piperidin-1-yl)-2-oxo-2,3-dihydro-pyrimidin-4-yl]-amide], the IC50 in assay [5] is under 1000 nM; in assay [1] (read-out: IC50 (μM) PIM2) it was under 1 µM; in assay [2] (read-out: IC50 (μM) PIM3), under 1 µM; in assay [3] (read-out: IC50 (μM) PIM1) it was under 1 µM.
As to `Nc1ncc(-c2ccccc2C(F)(F)F)nc1C(=O)Nc1[nH]c(=O)ncc1N1CCCC(N)C1` (centres unmarked) [Example 404, 3-amino-6-(2-trifluoromethyl-phenyl)-pyrazine-2-carboxylic acid [5-(3-amino-piperidin-1-yl)-2-oxo-2,3-dihydro-pyrimidin-4-yl]-amide], the IC50 in assay [5] is 1000 to 10000 nM; in assay [1] (read-out: IC50 (μM) PIM2), under 1 µM; in assay [2] (read-out: IC50 (μM) PIM3), under 1 µM; in assay [3] (read-out: IC50 (μM) PIM1), under 1 µM.
As for `Nc1ncc(-c2ccccc2OC(F)(F)F)nc1C(=O)Nc1[nH]c(=O)ncc1N1CCCC(N)C1` (centres unmarked) [Example 405, 3-amino-6-(2-trifluoro-methoxy-phenyl)-pyrazine-2-carboxylic acid [5-(3-amino-piperidin-1-yl)-2-oxo-2,3-dihydro-pyrimidin-4-yl]-amide], the IC50 in assay [5] is 10000 to 25000 nM; in assay [1] (read-out: IC50 (μM) PIM2), under 1 µM; in assay [2] (read-out: IC50 (μM) PIM3) it was under 1 µM; in assay [3] (read-out: IC50 (μM) PIM1) it was under 1 µM.
With `Nc1ncc(-c2ccccc2C(F)(F)F)nc1C(=O)Nc1[nH]c(=O)ncc1N1CCCCC1` [Example 593, 3-amino-6-(2-trifluoromethyl-phenyl)-pyrazine-2-carboxylic acid (2-oxo-5-piperidin-1-yl-2,3-dihydro-pyrimidin-4-yl)-amide], the 50% inhibitory concentration (IC50) in assay [5] is over 25000 nM; in assay [1] (read-out: PIM2 IC50), under 1 µM; in assay [2] (read-out: PIM3 IC50), under 1 µM; in assay [3] (read-out: PIM1 IC50), under 1 µM.
In the case of `COc1ccccc1-c1cnc(N)c(C(=O)Nc2[nH]c(=O)ncc2N2CCCCC2)n1` [Example 594, 3-amino-6-(2-methoxy-phenyl)-pyrazine-2-carboxylic acid (2-oxo-5-piperidin-1-yl-2,3-dihydro-pyrimidin-4-yl)-amide], the IC50 is over 25000 nM in assay [5], under 1 µM in assay [1] (read-out: PIM2 IC50), under 1 µM in assay [2] (read-out: PIM3 IC50) and under 1 µM in assay [3] (read-out: PIM1 IC50).
For the compound `Nc1ncc(-c2ccccc2Cl)nc1C(=O)Nc1[nH]c(=O)ncc1N1CCCCC1` [Example 595, 3-amino-6-(2-chloro-phenyl)-pyrazine-2-carboxylic acid (2-oxo-5-piperidin-1-yl-2,3-dihydro-pyrimidin-4-yl)-amide], the IC50 in assay [5] is over 25000 nM; in assay [1] (read-out: PIM2 IC50), under 1 µM; in assay [2] (read-out: PIM3 IC50) it was under 1 µM; in assay [3] (read-out: PIM1 IC50), under 1 µM.
Turning to `Nc1ncc(-c2ccccc2OC(F)(F)F)nc1C(=O)Nc1[nH]c(=O)ncc1N1CCCCC1` [Example 596, 3-amino-6-(2-trifluoromethoxy-phenyl)-pyrazine-2-carboxylic acid (2-oxo-5-piperidin-1-yl-2,3-dihydro-pyrimidin-4-yl)-amide], the 50% inhibitory concentration (IC50) in assay [5] is over 25000 nM; in assay [1] (read-out: PIM2 IC50), under 1 µM; in assay [2] (read-out: PIM3 IC50) it was under 1 µM; in assay [3] (read-out: PIM1 IC50), under 1 µM.
